Results as given in patent US8815944B2, “Pharmaceutical composition with gelling properties containing a tyrosine derivative” (Ethypharm, priority 2008, dated 2014).
Where a name gives a salt, the structure may show the parent alone.

What was measured:
Type in all cases: physicochemical
[1] = Differential scanning calorimetry (DSC) of organogels in safflower oil; conditions: organogelator 5% (w/w) in safflower oil; for H (enthalpy of the gel-solution transition): area of endothermic peak; for TGS (gel-solution transition temperature): maximum of endothermic peak
Experimental: (§1) Organogelators at a concentration of 5% (w/w) were solubilized in safflower oil at high temperature (>80° C.) and gels were obtained by cooling the mixture.
The gels were characterized by differential scanning calorimetry (DSC) to obtain gel-solution transition temperatures (TGS) and enthalpy values of the transition (ΔH). Briefly, thermograms of gels were collected on a 2910 TA Instruments DSC system (New Castle, Del.). The instrument was calibrated with indium. Gels were weighed into aluminum pans that were subsequently sealed. Temperature was scanned between 5 and 90° C. at 10° C./min. The reported gel-sol transition temperatures (TGS) and enthalpies (ΔH) corresponded to the maximum and the area of the endothermic peaks respectively.

[2] = Rheological analysis of the gels (gel hardness, complex modulus G*); conditions: organogelator 5% (w/w) in safflower oil; 25±0.1° C., 0.1 to 10 Hz
Experimental: as §1
Rheological analysis of the gels was performed to determine the gel hardness, by measuring the complex modulus G*. The rheological properties of the organogels were measured by an AR2000 (Advanced Rheometer 2000, TA Instruments, New Castle, Del.), with parallel plate geometry (diameter of 40 mm). Organogels were heated until reaching TGS and they were placed between the parallel plates. The final thickness of the material coat between the plates was 650 to 750 μm. The film was cooled at 4° C. to form the gel. In the linear regime of the gel, the complex modulus G* have been measured as a function of the angular frequency (0.1 to 10 Hz) at 25±0.1° C. G*=(G′^2+G″^2)^0.5 with G′ the storage modulus and G″ the loss modulus.

[3] = Stability after sterilization by γ-radiation, by 1H-NMR; conditions: γ-radiation at 25 kGy on dry ice, 60Co source
Experimental: All formulation components were sterilized individually. B-TyrOCH3 and rivastigmine hydrogen tartrate (Riv) were sterilized on dry ice by γ-radiation at 25 kGy using a ^60Co source (Nordion Inc., Laval, QC, Canada). Stability of the organogelator and drug after sterilization was confirmed by ^1H-NMR. The safflower oil and NMP were filtered on 0.2-μm polytetrafluoroethylene filters. Safflower oil, B-TyrOCH3 (5% w/w) and Rivastigmine were mixed at 85° C. until solubilisation of the organogelator. N-methylpyrrolidone (NMP) (3% w/w) was added at high temperature, mixed and gel formulation syringes (20 G needle) were prepared, under aseptic conditions and put on ice during 15 minutes and at room temperature before injection. A control formulation was prepared without the organogelator in the same condition (oil formulation).

## CCCCCCCCCCCCCCCCCCCCCC(=O)N[C@@H](Cc1ccccc1)C(=O)OC [B-Phe-OCH3]
[1]
  H (enthalpy of the gel-solution transition): 61 kJ/mol
  TGS (gel-solution transition temperature): 53 °C
[2]
  G* (complex modulus, gel hardness): 6 kPa

## CCCCCCCCCCCCCCCCCCCCCC(=O)N[C@@H](Cc1ccc(O)cc1)C(=O)OC [B-Tyr-OCH3, N-Behenoyl L-tyrosine methyl ester]
[1]
  H (enthalpy of the gel-solution transition): 71 kJ/mol
  TGS (gel-solution transition temperature): 74 °C
[2]
  G* (complex modulus, gel hardness): 37.6 kPa

## CCCCCCCCCCCCCCCCCC(=O)NC(C)C(=O)OC (stereo not shown) [S-Ala-OCH3]
[1]
  H (enthalpy of the gel-solution transition): 55 kJ/mol
  TGS (gel-solution transition temperature): 60 °C
[2]
  G* (complex modulus, gel hardness): 5 kPa

## CCCCCCCCCCCCCCCCCC(=O)N[C@@H](Cc1ccccc1)C(=O)OC [S-Phe-OCH3, N-stearoyl L-phenylalanine methyl ester]
[1]
  H (enthalpy of the gel-solution transition): 38 kJ/mol
  TGS (gel-solution transition temperature): 43 °C
[2]
  G* (complex modulus, gel hardness): 6.1 kPa

## CCCCCCCCCCCCCCCCCC(=O)N[C@@H](Cc1c[nH]c2ccccc12)C(=O)OC [S-Trp-OCH3, N-stearoyl L-tryptophan methyl ester]
[1]
  H (enthalpy of the gel-solution transition): 23 kJ/mol
  TGS (gel-solution transition temperature): 56 °C
[2]
  G* (complex modulus, gel hardness): <0.1 kPa

## CCCCCCCCCCCCCCCCCC(=O)N[C@@H](Cc1c[nH]c2ccccc12)C(=O)O [S-Trp-OH, N-stearoyl L-tryptophan]
[1]
  H (enthalpy of the gel-solution transition): 16 kJ/mol
  TGS (gel-solution transition temperature): 122 °C
[2]
  G* (complex modulus, gel hardness): <0.1 kPa

## CCCCCCCCCCCCCCCCCC(=O)N[C@@H](Cc1ccc(O)cc1)C(=O)OC [S-Tyr-OCH3, N-Stearoyl L-tyrosine methyl ester]
[1]
  H (enthalpy of the gel-solution transition): 50 kJ/mol
  TGS (gel-solution transition temperature): 65 °C
[2]
  G* (complex modulus, gel hardness): 15.2 kPa

## CCCCCCCCCCCCCCCCCC(=O)N[C@@H](Cc1ccc(O)cc1)C(=O)O [S-Tyr-OH, N-stearoyl L-tyrosine]
[1]
  H (enthalpy of the gel-solution transition): 18 kJ/mol
  TGS (gel-solution transition temperature): 127 °C
[2]
  G* (complex modulus, gel hardness): 5 kPa

## CCN(C)C(=O)Oc1cccc([C@H](C)N(C)C)c1 [rivastigmine hydrogen tartrate]
[3]
  Stability after sterilization: confirmed
